# Assay: in vivo study of the concentration of acetaminophen in plasma and in interstitial fluid over time (FIG. 8)
# Excerpt: FIG. 8 illustrates an in vivo study of the concentration of acetaminophen in plasma and in interstitial fluid over time;
# FIG. 8 further illustrates acetaminophen measured in concentration in vivo in plasma, at line 82, and in interstitial fluid, at line 84.
structure (smiles),measurement,setting,value
CC(=O)Nc1ccc(O)cc1 [acetaminophen],measured acetaminophen concentration in interstitial fluid compared with plasma,,less than that of plasma
same,time acetaminophen is present in interstitial fluid,interstitial fluid,over six
same,time acetaminophen is present in plasma,plasma,over six

# Reference: patent US20220125348A1, “DETECTION OF INTERFERENT IN ANALYTE SENSING” (MEDTRONIC MINIMED, INC., priority 2020, published 2022)
